Test results as given in patent publication US9896711B2, “Fluorogenic or fluorophoric compounds and uses thereof” (3M INNOVATIVE PROPERTIES COMPANY, priority 2011, dated 2018).
Where two headings read alike, the source gives them in different places.

How the values were obtained:
[1] = see Bioorg. and Med. Chem. Lett., 8, 3107-3110 (1998); cited from earlier work
[2] = physchem; settings: 100 mM phosphate buffer in a 96 well plate, pH 8
Description: A 96 well plate was prepared with each well containing 100 microliters of 100 mM phosphate buffer at pH values ranging from 8.0 to 2.5 in 0.5 unit increments. […] A set of 10× diluted wells were also prepared to eliminate artifacts due to self-quenching of the fluorophore at high concentrations. The 10× dilutions were prepared by diluting the 1 mg/mL solution to 0.1 mg/mL in DMSO, and then adding 10 microliters of this solution to 100 microliters of 100 mM phosphate buffer in each of the wells.
The absorption spectra from 250 nanometers (nm) to 500 nm were recorded using a SPECTRAMAX M5 fluorescence plate reader (available from Molecular Devices of Sunnyvale Calif.) for each pH value.
Emission spectra at wavelengths from 410 nm to 700 nm were also recorded on the SPECTRAMAX M5 fluorescence plate reader at an excitation wavelength of 400 nm over the range of pH values in the plate. […]
The absorption at 400 nm and emission at 450 nm over the range of pH values were recorded on a SPECTRAMAX M5 fluorescence plate reader. […]
The absorption spectra from 300 nanometers (nm) to 700 nm were recorded for the 10× diluted wells using a SPECTRAMAX M5 fluorescence plate reader (available from Molecular Devices of Sunnyvale Calif.) for each pH value. […]

[3] = system: Escherichia coli (ATCC 29425); assay: Detection of microbial colonies on bacterial culture plates by fluorescence imaging; format: cell-based; settings: for time after which colonies were apparent in the images: Plates 8-1 and C-1, 200 nM, with MX-180 particles, about 20° C. to 27° C.; for mean fluorescence intensity of colonies over time: Plates 8-1 and C-1, averaged across 6 colonies, 30 seconds fluorescent illumination
Description: A mixture of 50 grams of xanthan gum powder and 50 grams of locust bean gum powder was placed in a 500 mL bottle and shaken manually for about 5 minutes. A cover film was prepared by sprinkling the mixture onto the adhesive of a pressure-sensitive adhesive coated sheet that is commercially available under the trade designation 9795R ADVANCED SEALING TAPE from 3M Company in St. Paul Minn. The adhesive coated sheet was tilted to remove excess powder. The coating weight of the gums was approximately 85 milligrams per 24 square inches (i.e, 0.55 milligrams per square centimeter).
A growth medium mixture was prepared by mixing 22.8 parts of pancreatic digest of casein, 15.9 parts of yeast extract, 45.5 parts of sodium pyruvate, 4.1 parts of dextrose, 9.0 parts of dibasic potassium phosphate, and 2.8 parts of monobasic potassium phosphate. A growth medium broth was prepared by mixing 500 mL of deionized water with 14.78 grams of the growth medium mixture in a beaker using an air motor mixer followed by adding 5 grams of locust bean gum in small increments, and mixing for several minutes. The beaker was covered with foil and the mixture was heated to 80° C., mixed for about 6 minutes, and then allowed to cool for about ten minutes while mixing without heat. The broth was then poured into a sterilized beaker, covered with a plastic bag and refrigerated. The cooled broth was stirred carefully with a spatula to avoid forming air bubbles and then knife coated onto a 24.4 cm wide sheet of 4 mil thick polyethylene terephthalate film that is commercially available under the trade designation MELINEX 453 from DuPont Teijin Films in Hopewell Va. The broth coated film was dried in an oven set at a temperature of 210° C. for about 10 minutes. The dried coating weight was about 1 mg per square centimeter.
A 20.3 centimeter (cm) wide sheet of 4 mil (a mil is equal to 0.001 inches) thick closed cell polystyrene foam (commercially available from American Fuji Seal, Inc. of Bardstown, Ky.) was laminated to a pressure-sensitive adhesive transfer tape on a release liner. The specific transfer tape used has an acrylic pressure-sensitive adhesive and is commercially available from 3M Company (Saint Paul, Minn.) under the trade designation 3M […] ADHESIVE 927. Circular discs measuring 5 cm in diameter were die-cut and removed from the laminate, forming circular openings centered within a 7.6 cm square from one end of 7.6 cm by 10.16 cm rectangle. The liner was removed and the adhesive-coated surface of the polystyrene foam was adhered to the broth coated film to provide a base member having a broth-coated self-supporting substrate and a hydrophobic spacer element (i.e., “foam dam”) adhered to the broth-coated surface of the supporting substrate. Rectangular plates measuring 7.6 cm by 10.16 cm were cut from the laminate, with the circular openings centered within a 7.6 cm square on one end of the 10.16 cm length. The cover film was attached to the base member with the powder coated side facing the foam dam with a double sided pressure-sensitive adhesive tape to form a culture plate.
For Example 8, an indicator solution was prepared by dissolving FTU-gal from Example 6 in DMSO at a 50 mM (millimolar) concentration (Indicator 1). The solution was further diluted 20-fold to provide a 2.5 mM solution (Indicator 2).
For Comparative Example C1, indicator solutions were prepared by dissolving TU-gal in DMSO at a 20 mM concentration (Indicator 3). […]

[4] = system: β-D-galactosidase; assay: Emission of fluorogenic galactoside at pH 2.5 to 8.0 in the presence and absence of β-D-galactosidase; format: biochemical; settings: FIG. 6; emission 495 nm, excitation 430 nm, pH 5 to 7, with β-D-galactosidase; about two-thirds of sample fluorinated
Description: Absorbance and emission spectra for the first fraction of FTU-gal was recorded at pH 2.5 to 8.0 in the presence and absence of β-D-galactosidase, and then compared to spectra of TU-gal (prepared according to U.S. Pat. No. 6,566,508 (Bentsen et al.) under the same conditions.
About two-thirds of the sample tested was fluorinated.

pKa [2]	Molecule	time after which colonies were apparent in the images [3] [h]	mean fluorescence intensity of colonies over time [3]	other results
	Cc1cc(=O)oc2c(F)c(O)c(F)cc12 [6,8-difluoro-4-methyl-7-hydroxycoumarin]			pKa [1]: 4.2
~4.5	CCOC(=O)c1cc2cc(F)c(O)cc2oc1=O [6-FEHC, 6-fluoro-3-ethylcarboxylate-7-hydroxycoumarin]			
~6.5	CCOC(=O)c1cc2ccc(O)cc2oc1=O [EHC, 3-ethylcarboxylate-7-hydroxycoumarin, reference compound]			
	O=c1oc2cc(O[C@@H]3O[C@H](CO)[C@H](O)[C@H](O)[C@H]3O)ccc2cc1-c1cccs1 [TU-gal, 3-thienylumbelliferone-pyanogalactoside, reference compound]	14	tended to plateau over time	
	fluorinated 3-thienylumbelliferone-pyranogalactoside [FTU-gal]	14	continued to increase	enhancement in intensity versus TU that is not fluorinated [4]: more than 2 fold; signal to noise (background) ratio over time ([3]; Plates 8-1 and C-1, six colonies and six background spots): always higher
